Assay results published in patent US20130053430A1, “MODULATION OF CETP EXPRESSION” (Isis Pharmaceuticals, Inc., priority 2010, published 2013).
e = 2'-O-(2-methoxyethyl) (MOE); d = 2'-deoxy (DNA)

Assays:
[1] = Effect on HDL composition in huCETP transgenic LDL receptor knockout mice (Example 10); format: in vivo; settings: HDL fraction; for FC % (free cholesterol component of HDL) / PL % (phospholipid component of HDL) / Pro % (protein component of HDL) / TG % (triglyceride component of HDL) / CE % (cholesteryl ester component of HDL): CETP transgenic LDLr−/− mouse model; for CE % (cholesteryl ester component of HDL): calculated as (total cholesterol−free cholesterol)×1.67; for S/C Ratio: surface components (Pro, FC, PL) to core components (CE, TG)
From the text: In human CETP transgenic mice, the bulk of the cholesterol in plasma is associated with HDL and, in this model, cholesteryl ester (CE) transferred from HDL to VLDL/LDL by CETP is rapidly cleared by the LDL receptor (LDLr) (Zhou, H. et al., Biochim Biophys. Acta. 1761: 14821488, 2006). The human CETP transgenic, LDLr knockout mouse model used in this example is an animal model for cardiovascular disease. In this model, clearance of LDL is delayed due to the absence of LDLr leading to the inability of the mice to clear CE via the LDL pathway (Plump, A. S. et al., Arterioscler. Thromb. Vasc. Biol. 19: 1105-1110, 1999). This human CETP transgenic, LDLr knockout mouse is helpful in assessing the effect of antisense inhibition of CETP on HDL composition as the model has a proatherogenic lipoprotein profile where most of the cholesterol is found in VLDL and LDL.
Male transgenic mice were maintained on a 12-hour light/dark cycle and were fed ad libitum the Western diet (TD88137; 42% cal from fat, 0.2% cholesterol; Harlan Laboratories, Indianapolis, Ind.). Animals were acclimated for at least 7 days in the research facility before initiation of the experiment and were maintained on this diet throughout the study period. Antisense oligonucleotides (ASOs) were prepared in buffered saline (PBS) and sterilized by filtering through a 0.2 micron filter. Oligonucleotides were dissolved in 0.9% PBS for injection.
Another group received subcutaneous injections of control oligonucleotide ISIS 141923 at a dose of 15 mg/kg/week for 6 weeks. One group of mice received subcutaneous injections of PBS for 6 weeks. The PBS-injected group served as the control group to which treatment groups were compared.
At the end of the treatment period, plasma samples were taken for further analysis.
The VLDL+IDL, LDL and HDL lipoprotein sub-fractions were separated by ultracentrifugation, based on their relative densities. Pooled plasma samples from all the groups of […] each was added to a 2 mL Beckman Quick-Seal centrifuge tube and the density adjusted to 1.019 g/mL with potassium bromide (KBr). The samples were then spun in a Beckman TL-100 ultracentrifuge for 4 hours at 100,000 rpm at 4 degrees Celsius. The top of the tube containing the VLDL+IDL sub-fraction was sliced off and collected.
The bottom fraction was collected in a new tube; the density was re-adjusted to 1.063 g/ml with KBr and re-spun at 100,000 rpm at 4 degrees Celsius for 5 hours to concentrate the LDL sub-fraction. The top of the tube containing the LDL sub-fraction was collected. Once again, the bottom fraction was placed in a new tube and the density was now adjusted to 1.21 g/ml with KBr to concentrate the HDL sub-fraction. The tubes were spun at 100,000 rpm at 4 degrees Celsius for 6 hours. The HDL sub-fraction was finally collected. All of the lipoprotein sub-fractions were dialyzed overnight in PBS to remove excess KBr.
The sub-fractions were then assayed for total cholesterol and triglyceride (TG) using enzymatic assays from Roche (Basel, Switzerland). Phospholipid (PL) and free cholesterol (FC) were measured using enzymatic assays from Wako Chemicals USA (Richmond, Va.). Protein (Pro) concentration was measured by Fisher Scientific's BCA assay (Pittsburgh, Pa.). Cholesteryl ester (CE) was calculated as (total cholesterol−free cholesterol)×1.67 (CE is cholesterol plus a fatty acid, the 1.67 adjustment takes into account the increase in mass the fatty acid will add (Rudel L L et al, JCI 100 (1); 74-83)). The S/C ratio is the ratio of the surface components (Pro, FC, and PL) to the core components (CE and TG).
Additionally, the S/C ratio is increased, indicating a shift to a smaller HDL particle, after antisense oligonucleotide inhibition of CETP. Accordingly, in this model, inhibiting the CETP-mediated transfer of TG to HDL, and CE from HDL, leads to the formation of smaller, denser, and CE rich HDL.

[2] = tested on: CETP activity; assay: CETP activity assay kit, dose response (Example 9); format: in vivo, human; settings: huCETP transgenic mice, Western diet, s.c. 6 weeks
Description: Another group received subcutaneous injections of control oligonucleotide ISIS 141923 at a dose of 50 mg/kg/week for 6 weeks. One group of mice received subcutaneous injections of PBS for 6 weeks. The PBS-injected group served as the control group to which treatment groups were compared.
CETP activity levels were measured using a CETP activity assay kit (Roar Biomedical Inc.).

[3] = tested on: CETP protein; assay: Plasma CETP protein by ELISA in huCETP transgenic mice (Example 5); format: in vivo, human; settings: normal chow, 50 mg/kg i.p. twice per week for 6 weeks, compared to PBS control
Description: (§1) The mice were divided into five treatment groups. The first four groups received intraperitoneal injections of ISIS 349511, ISIS 349512, ISIS 349515, or ISIS 349517 at a dose of 50 mg/kg twice per week for 6 weeks. The fifth group received intraperitoneal injections of saline twice weekly for 6 weeks.
(§2) Plasma levels of CETP protein were measured by ELISA (Alpco, N.H.). […] The results are expressed as percentage inhibition compared to the PBS control.

[4] = tested on: CETP protein; assay: Plasma CETP protein by ELISA, normal or cholesterol-enriched chow (Example 6); format: in vivo, human; settings: 50 mg/kg s.c. twice per week
Description: The normal chow-fed mice were divided into three treatment groups. The cholesterol-enriched chow-fed mice were divided into three treatment groups. […] One chow-fed group and one cholesterol-enriched chow-fed group received subcutaneous injections of saline twice weekly for 6 weeks. The saline-injected groups served as the control groups to which the corresponding oligonucleotide-treated groups were compared.
as §2

[5] = Plasma glucose in huCETP transgenic mice (Example 5); format: in vivo; settings: 50 mg/kg i.p. twice per week
Description: as §1
Plasma glucose values were determined using a Beckman Glucose Analyzer II (Beckman Coulter) by a glucose oxidase method (Lott, J. A. et al., Clin. Chem. 21: 1754-1760, 1975).

Substance | FC % (free cholesterol component of HDL) [1] | PL % (phospholipid component of HDL) [1] | Pro % (protein component of HDL) [1] | TG % (triglyceride component of HDL) [1] | CE % (cholesteryl ester component of HDL) [1] | S/C Ratio [1] | Percent inhibition of CETP activity ([2]; Dose 50 mg/kg/wk) | Percent inhibition of plasma CETP protein levels [3] | Percent inhibition of plasma CETP protein levels ([4]; Cholesterol chow, Week 3) | Percent inhibition of plasma CETP protein levels ([4]; Cholesterol chow, Week 6) | Percent inhibition of plasma CETP protein levels ([4]; Normal chow, Week 3) | Percent inhibition of plasma CETP protein levels ([4]; Normal chow, Week 6) | Glucose levels ([5]; week 3) | Glucose levels ([5]; week 6) | Percent inhibition of CETP activity ([2]; Dose 1.5 mg/kg/wk) | Percent inhibition of CETP activity ([2]; Dose 5 mg/kg/wk) | Percent inhibition of CETP activity ([2]; Dose 15 mg/kg/wk)
ISIS 141923: CCTTCCCTGAAGGTTCCTCC, 5-10-5 MOE gapmer, a control oligonucleotide which has no known murine target (sugars from the 5' end e5 d10 e5, backbone and methylation of C not given here) [reference compound] | 3.1% | 8.4% | 24.8% | 47.1% | 16.6% | 0.57 | 2% | – | – | – | – | – | – | – | – | – | –
ISIS 349511: 5-10-5 MOE gapmer CCCGACCTCCTTGGAGACTT (sugars from the 5' end e5 d10 e5, backbone and methylation of C not given here) | – | – | – | – | – | – | – | 75% | 89% | 85% | 81% | 85% | 286 mg/dL | 245 mg/dL | – | – | –
ISIS 349517: 5-10-5 MOE gapmer CAGCACTTTAATGCCAGTGG (sugars from the 5' end e5 d10 e5, backbone and methylation of C not given here) | 2.1% | 15.6% | 31.3% | 12.8% | 38.1% | 0.96 | 77% | 86% | 97% | 96% | 95% | 91% | 333 mg/dL | 254 mg/dL | 33% | 59% | 76%
